Experimental data reported in patent US20240269170A1, “Treatment of Inflammatory Conditions or Diseases” (Queen Mary University of London, priority 2021, published 2024).

Test system: G6PI peptide induced arthritis in DBA/1 mice
Test: G6PI peptide induced arthritis, transfer of monocytes from naive mice pre-incubated with MCTR3
Type: in vivo, mouse
Settings: monocytes incubated with 10 μM RG108 for 15 min before 1 nM MCTR3
Method: FIG. 3: MCTR3 reprograms monocyte responses to reduce inflammation and repair inflamed joints. (A-B) Antigen induced arthritis was initiated by administering G6PI peptide (10 μg/mouse) in CFA via intradermal injection to DBA/1 mice. After 25 days mice were treated with 0.5×10^6 monocytes from naive mice that had been pre-incubated with vehicle (PBS+0.1% EtOH) or 1 nM MCTR3 for 90 min at 37° C. via i.v. injection. Disease course was monitored daily by assessing A) clinical scores and B) oedema. Results are mean±SEM and expressed as percent change from day of treatment n=5 per group from two separate experiments. Results are mean±SEM. Statistical differences were calculated using a Two-way ANOVA.
FIG. 11: DNA methyltransferase inhibition prevents MCTR3 reprogramming of protective monocyte responses. […] Disease course was assessed by evaluating A) clinical scores and B) oedema relative to the day of treatment. Results are mean±SEM and expressed as percentage change from day of treatment. n=5 per group and statistics were calculated using a Two-way ANOVA. […]

O=C(O)C(Cc1c[nH]c2ccccc12)N1C(=O)c2ccccc2C1=O (stereo not shown) [RG108]
protective actions of MCTR3 (ability of reprogrammed monocytes to regulate joint inflammation): abolished
